Series [1] is described as follows: Cytotoxicity against Swiss mouse peritoneal macrophages assessed as reduction in cell viability measured after 5 days by microscopic analysis. Format: toxicity, cell-based, Peritoneal macrophage. The settings on record: time 5 day.
The subject of series [2] is Leishmania infantum. As to the kind of experiment: Antileishmanial activity against intracellular Leishmania infantum MHOM/MA(BE)/67 ITMAP263 amastigotes infected in Swiss mouse peritoneal macrophage assessed as inhibition of parasite growth measured after 5 days by geimsa staining based microscopic analysis. Format: functional, organism-based. The note with it: MHOM/MA(BE)/67 ITMAP263, Peritoneal macrophage, 120 h.

Series [3] in a line: Cytotoxicity against human MRC5 cells assessed as reduction in cell viability incubated for 3 days by resazurin dye based fluorescence analysis. The settings on record: time 3 day. Format: toxicity.
Series [4] is described as follows: Selectivity index, ratio of CC50 for Cytotoxicity against Swiss mouse peritoneal macrophages to EC50 for intracellular Leishmania infantum MHOM/MA(BE)/67 ITMAP263 amastigotes infected in Swiss mouse peritoneal macrophages. The settings on record: read-out: Ratio CC50/EC50. Format: toxicity, cell-based.

Broadly, the CC50 is the concentration at which the toxic effect on the cells reaches its halfway point. Usually EC50 stands for the concentration giving half of the maximal effect.

`Cc1ncnc2c1c(-c1ccccc1[N+](=O)[O-])cn2[C@@H]1O[C@H](CO)[C@@H](O)[C@H]1O`: the CC50 at 120 h in series [1] is greater than 64 µM. Also, the EC50 in series [2] was greater than 64 µM. The CC50 at 72 h in series [3] was greater than 64 µM.
On to `Cc1ncnc2c1c(-c1cccc(F)n1)cn2[C@@H]1O[C@H](CO)[C@@H](O)[C@H]1O`, for which the CC50 at 120 h in series [1] is greater than 64 µM. Also, the EC50 in series [2] was greater than 64 µM. The 50% cytotoxic concentration (CC50) at 72 h in series [3] was greater than 64 µM.
`Cc1ncnc2c1c(-c1ccccc1N)cn2[C@@H]1O[C@H](CO)[C@@H](O)[C@H]1O`: in series [1], the CC50 at 120 h is greater than 64 µM. Also, the EC50 in series [2] is greater than 64 µM. In addition, the half-maximal cytotoxic concentration (CC50) at 72 h in series [3] is greater than 64 µM.
With `Cc1ncnc2c1c(CCc1ccccn1)cn2[C@@H]1O[C@H](CO)[C@@H](O)[C@H]1O`, in series [1], the CC50 at 120 h was greater than 64 µM. In addition, the half-maximal effective concentration (EC50) in series [2] is greater than 64 µM. Besides, the CC50 at 72 h in series [3] was greater than 64 µM.
As to `Cc1ncnc2c1c(/C=C/c1ccccn1)cn2[C@@H]1O[C@H](CO)[C@@H](O)[C@H]1O`, the selectivity ratio in series [4] was greater than 3.37. Further, in series [1], the CC50 at 120 h was greater than 64 µM. Moreover, the EC50 in series [2] worked out at 19 µM. The CC50 at 72 h in series [3] is greater than 64 µM.
As for `Cc1ncnc2c1c(-c1ccc3ccccc3n1)cn2[C@@H]1O[C@H](CO)[C@@H](O)[C@H]1O`, the CC50 at 120 h in series [1] was greater than 64 µM. Besides, the EC50 in series [2] was greater than 64 µM. Also, in series [3], the CC50 at 72 h is greater than 64 µM.
Consider `Cc1ncnc2c1c(-c1ccc(Cl)nc1)cn2[C@@H]1O[C@H](CO)[C@@H](O)[C@H]1O`, for which the CC50 at 120 h in series [1] is greater than 64 µM. The EC50 in series [2] is greater than 64 µM. Besides, the CC50 at 72 h in series [3] was greater than 64 µM.
As for `Cc1ncnc2c1c(Sc1ccccc1)cn2[C@@H]1O[C@H](CO)[C@@H](O)[C@H]1O`, the CC50 at 120 h in series [1] is greater than 64 µM. For the same molecule, in series [2], the EC50 was greater than 64 µM. For the same molecule, the CC50 at 72 h in series [3] was greater than 64 µM.
Take `COc1cc(-c2cn([C@@H]3O[C@H](CO)[C@@H](O)[C@H]3O)c3ncnc(C)c23)ccc1Cl`: in series [4], the selectivity ratio was greater than 7.3. Further, in series [1], the CC50 at 120 h was greater than 64 µM. Also, the EC50 in series [2] worked out at 8.76 µM.
In the case of `Cc1ncnc2c1c(-c1ccsc1)cn2[C@@H]1O[C@H](CO)[C@@H](O)[C@H]1O`, the CC50 at 120 h in series [1] is greater than 64 µM. In addition, the EC50 in series [2] is greater than 64 µM. For the same molecule, the CC50 at 72 h in series [3] was greater than 64 µM.
For the molecule `Cc1ncnc2c1c(-c1ccccc1Cl)cn2[C@@H]1O[C@H](CO)[C@@H](O)[C@H]1O`, the selectivity ratio in series [4] is greater than 3.1. Further, the CC50 at 120 h in series [1] was greater than 64 µM. In addition, the EC50 in series [2] turned out to be 20.4 µM. The CC50 at 72 h in series [3] is greater than 64 µM.
As to `CSc1ccccc1-c1cn([C@@H]2O[C@H](CO)[C@@H](O)[C@H]2O)c2ncnc(C)c12`, in series [1], the CC50 at 120 h was greater than 64 µM. Further, the EC50 in series [2] is greater than 64 µM. The CC50 at 72 h in series [3] is greater than 64 µM.
Regarding `Cc1ncnc2c1c(C1=CCOCC1)cn2[C@@H]1O[C@H](CO)[C@@H](O)[C@H]1O`, the CC50 at 120 h in series [1] was greater than 64 µM. The EC50 in series [2] came to 24.5 µM.
With `Cc1ncnc2c1c(-c1cccnc1)cn2[C@@H]1O[C@H](CO)[C@@H](O)[C@H]1O`, the selectivity ratio in series [4] is greater than 2.8. In series [1], the CC50 at 120 h was greater than 64 µM. In addition, the EC50 in series [2] is 22.6 µM. Moreover, in series [3], the CC50 at 72 h is greater than 64 µM.
For the molecule `Cc1ncnc2c1c(-c1cnn(C)c1)cn2[C@@H]1O[C@H](CO)[C@@H](O)[C@H]1O`, the selectivity ratio in series [4] is greater than 8. Besides, the CC50 at 120 h in series [1] is greater than 64 µM. In addition, the EC50 in series [2] is 8 µM. Besides, the CC50 at 72 h in series [3] was greater than 64 µM.
On to `Cc1ncnc2c1c(-c1cccc3ccn(C)c13)cn2[C@@H]1O[C@H](CO)[C@@H](O)[C@H]1O`, for which the CC50 at 120 h in series [1] is greater than 64 µM. The EC50 in series [2] was greater than 64 µM. Besides, the CC50 at 72 h in series [3] is greater than 64 µM.
As to `Cc1ncnc2c1c(-c1ccncc1)cn2[C@@H]1O[C@H](CO)[C@@H](O)[C@H]1O`, in series [1], the CC50 at 120 h was greater than 64 µM. Also, the EC50 in series [2] is greater than 64 µM. Besides, the CC50 at 72 h in series [3] is greater than 64 µM.
For the molecule `Cc1ncnc2c1c(-c1cccs1)cn2[C@@H]1O[C@H](CO)[C@@H](O)[C@H]1O`, in series [4], the selectivity ratio was 2.5. The CC50 at 120 h in series [1] is 32 µM. In addition, in series [2], the concentration giving a half-maximal response (EC50) is 12.7 µM.
As for `Cc1ncnc2c1c(-c1cccc(Cl)n1)cn2[C@@H]1O[C@H](CO)[C@@H](O)[C@H]1O`, the selectivity ratio in series [4] is greater than 4.51. Moreover, in series [1], the CC50 at 120 h was greater than 64 µM. In series [2], the EC50 turned out to be 14.2 µM. Moreover, the CC50 at 72 h in series [3] was greater than 64 µM.
As for `Cc1ncnc2c1c(-c1cc3ccccc3o1)cn2[C@@H]1O[C@H](CO)[C@@H](O)[C@H]1O`, the selectivity ratio in series [4] came out at 1.58. For the same molecule, the CC50 at 120 h in series [1] was found to be 32 µM. Besides, in series [2], the EC50 was 20.3 µM. Further, the CC50 at 72 h in series [3] came out at 45.8 µM.
Regarding `Cc1ncnc2c1c(-c1ccc(Cl)cc1)cn2[C@@H]1O[C@H](CO)[C@@H](O)[C@H]1O`, in series [4], the selectivity ratio is greater than 3.5. Also, the CC50 at 120 h in series [1] was greater than 64 µM. In addition, the 50% effective concentration (EC50) in series [2] is 16.1 µM.
In the case of `Cc1ncnc2c1c(-c1ccoc1)cn2[C@@H]1O[C@H](CO)[C@@H](O)[C@H]1O`, the CC50 at 120 h in series [1] is greater than 64 µM. For the same molecule, in series [2], the EC50 is greater than 64 µM. Also, the CC50 at 72 h in series [3] was greater than 64 µM.
With `Cc1ncnc2c1c(-c1cc[nH]n1)cn2[C@@H]1O[C@H](CO)[C@@H](O)[C@H]1O`, the selectivity ratio in series [4] is greater than 8. In addition, in series [1], the CC50 at 120 h is greater than 64 µM. Further, the EC50 in series [2] came to 8 µM. In addition, the CC50 at 72 h in series [3] was 27.9 µM.
For the molecule `Cc1ncnc2c1c(-c1cccc3c1oc1ccccc13)cn2[C@@H]1O[C@H](CO)[C@@H](O)[C@H]1O`, the selectivity ratio in series [4] is greater than 1.2. Also, in series [1], the CC50 at 120 h was greater than 64 µM. For the same molecule, in series [2], the EC50 came to 50.8 µM. The CC50 at 72 h in series [3] was found to be 12.7 µM.
The like results for `Oc1ncnc2[nH]ncc12` [ALLOPURINOL] were, in that order, greater than 18, greater than 64 µM, 3.5 µM and greater than 64 µM.
Regarding `Cc1ncnc2c1c(-c1ccc(Cl)c(F)c1)cn2[C@@H]1O[C@H](CO)[C@@H](O)[C@H]1O`, the selectivity ratio in series [4] is greater than 8. Further, the CC50 at 120 h in series [1] was greater than 64 µM. Also, in series [2], the EC50 was 7.9 µM.
Turning to `Cc1ncnc2c1c(-c1cc3ccccc3cn1)cn2[C@@H]1O[C@H](CO)[C@@H](O)[C@H]1O`, the CC50 at 120 h in series [1] was greater than 64 µM. Moreover, the EC50 in series [2] was greater than 64 µM. In addition, the CC50 at 72 h in series [3] is greater than 64 µM.
With `Cc1ncnc2c1c(-c1ccc(S(C)(=O)=O)cc1)cn2[C@@H]1O[C@H](CO)[C@@H](O)[C@H]1O`, the selectivity ratio in series [4] was greater than 9.5. In series [1], the CC50 at 120 h is greater than 64 µM. In addition, the EC50 in series [2] was determined as 6.7 µM.
Turning to `Cc1ncnc2c1c(-c1ccc(C(F)(F)F)cc1)cn2[C@@H]1O[C@H](CO)[C@@H](O)[C@H]1O`, in series [4], the selectivity ratio was greater than 5.6. Also, the CC50 at 120 h in series [1] is greater than 64 µM. The EC50 in series [2] was 11.3 µM.
With `COc1ccnc(-c2cn([C@@H]3O[C@H](CO)[C@@H](O)[C@H]3O)c3ncnc(C)c23)c1`, the CC50 at 120 h in series [1] is greater than 64 µM. Moreover, the EC50 in series [2] is greater than 64 µM. For the same molecule, the CC50 at 72 h in series [3] is greater than 64 µM.
On to `Cc1ncnc2c1c(-c1cnccn1)cn2[C@@H]1O[C@H](CO)[C@@H](O)[C@H]1O`, for which the selectivity ratio in series [4] was greater than 6.3. Besides, the 50% cytotoxic concentration (CC50) at 120 h in series [1] is greater than 64 µM. In addition, the EC50 in series [2] worked out at 10.1 µM. Moreover, the CC50 at 72 h in series [3] is greater than 64 µM.
On to `Cc1ncnc2c1c(-c1ccccc1F)cn2[C@@H]1O[C@H](CO)[C@@H](O)[C@H]1O`, for which the CC50 at 120 h in series [1] was greater than 64 µM. For the same molecule, the EC50 in series [2] is greater than 64 µM. For the same molecule, the CC50 at 72 h in series [3] was greater than 64 µM.
For the molecule `Cc1ncnc2c1c(-c1ccc(N)cc1)cn2[C@@H]1O[C@H](CO)[C@@H](O)[C@H]1O`, in series [4], the selectivity ratio is greater than 9.5. Moreover, the CC50 at 120 h in series [1] was greater than 64 µM. In addition, in series [2], the EC50 worked out at 6.7 µM.
